Columns and labels:
HL-60 cell line = system: HL-60 cell line; design: method as in PMID 35441145; conditions: cited from earlier work
Sirt1 = system: T1, Sirt1; test: Fluorescence-based Sirt1 subtype selectivity assay (Reaction Biology); format: biochemical; conditions: 50 µM inhibitor, duplicate, relative to no-inhibitor control
T1 construct: includes amino acids 1–747 (C-terminal); His-tag (N); purchased Reaction Biology Corporation (Malvern, PA, USA), in-house enzyme of the contract laboratory; host or cells: E. coli
Method: (§1) The determination of the inhibitory potency and corresponding subtype selectivity of the synthesized hybrid candidates was performed by Reaction Biology Cooperation (Malvern, PA, USA) using a fluorescence-based assay (Table 1).
(§2) Sirtuin assays. The biological activity of the test substances against the respective sirtuin enzymes was evaluated by means of a fluorescence-based assay performed by Reaction Biology Corporation (Malvern, PA, USA). The sirtuin enzymes used in the assays were all obtained from in-house sources at Reaction Biology Corporation (Malvern, PA, USA). Sirt1, with accession number NM_012238, includes amino acids 1–747 (C-terminal) and is tagged with an N-terminal His-tag. Sirt1 was expressed in E. coli and purified to greater than 85% as confirmed by SDS-PAGE and is supplied as a solution in 50 mM Tris/HCl (pH 7.5), 100 mM NaCl, and 10% glycerol (v/v). Sirt2 (accession number NM_012237), comprising amino acids 50–389 (C-terminal), features an N-terminal His-tag and was expressed in E. coli and finally purified to over 90% by SDS-PAGE. Sirt2 is provided in a buffer containing 50 mM Tris/HCl (pH 7.5), 500 mM NaCl, 1 mM TCEP, and 10% glycerol (v/v). Sirt3, with accession number NM_012239.3, spans amino acids 101–399 and is tagged with an N-terminal GST and expressed in E. coli and purified to greater than 85% purity by SDS-PAGE. Sirt3 is supplied in 50 mM Tris/HCl (pH 7.5), 500 mM NaCl, and 10% glycerol (v/v). Sirt5 (accession number NM_012241), consisting of amino acids 37–310 (C-terminal) and tagged with an N-terminal His-tag, was expressed in E. coli, purified to greater than 95% purity by SDS-PAGE and delivered as a solution in 50 mM Tris/HCl (pH 7.5), 500 mM NaCl, 1 mM TCEP, and 10% glycerol (v/v). All proteins were provided in purified forms for use in the assays. The respective internal assay protocol is outlined in the following: After the test substances (dissolved in DMSO) were incubated with the desired sirtuin enzyme in assay buffer (Tris-HCl, pH = 8) for 10 min at 30 °C, a substrate mixture consisting of a 7-amino-4-methylcoumarin-linked fluorogenic peptide substrate (p53 residues 379–382) and the cofactor NAD^+ was added. After 2 h of incubation at 30 °C, the universal inhibitor nicotinamide was added in excess to completely stop the deacetylation reaction, followed by the addition of a protease-based developer to release 7-amino-4-methylcoumarin, resulting in characteristic fluorescence, which was measured after 1 h at 30 °C (excitation/emission = 360/460). A no-inhibitor control was implemented, serving as a reference for 100% enzyme activity. […] Three individual IC50 values per test compound were calculated from the corresponding three dilution series fluorescence data using sigmoidal curve fitting in Prism 8.0.2 (GraphPad Software, Boston, MA, USA), and these were averaged to determine the mean IC50 value along with the standard deviation. To assess the selectivity against Sirt1, Sirt3, and Sirt5, a 50 µM concentration of the test compound was tested in duplicate, and the inhibitory activity was expressed as the mean of the duplicates in percentage of enzyme activity, including standard deviation, relative to the no-inhibitor control (representative 100% enzyme activity).

Sirt2 = target: T2, Sirt2 (Homo sapiens, UniProt Q8IXJ6); test: Fluorescence-based Sirt2 deacetylase inhibition assay (Reaction Biology); format: biochemical; conditions: mean ± SD of three dilution series, fluorescence-based assay; read-out: IC50 [µM] ± SD Sirt2
T2 construct: comprising amino acids 50–389 (C-terminal); His-tag (N); purchased Reaction Biology Corporation (Malvern, PA, USA), in-house enzyme of the contract laboratory; host or cells: E. coli
T2 sequence (Q8IXJ6 50-389): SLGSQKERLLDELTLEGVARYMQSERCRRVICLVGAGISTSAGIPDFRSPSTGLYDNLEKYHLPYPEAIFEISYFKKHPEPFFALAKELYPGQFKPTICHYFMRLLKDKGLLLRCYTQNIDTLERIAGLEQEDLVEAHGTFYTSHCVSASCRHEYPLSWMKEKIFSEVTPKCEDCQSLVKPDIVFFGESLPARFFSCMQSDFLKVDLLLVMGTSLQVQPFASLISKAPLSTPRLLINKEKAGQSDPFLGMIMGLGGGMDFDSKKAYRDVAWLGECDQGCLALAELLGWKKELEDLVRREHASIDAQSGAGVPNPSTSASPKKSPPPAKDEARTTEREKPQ
Method: as §1
Sirtuin assays. The biological activity of the test substances against the respective sirtuin enzymes was evaluated by means of a fluorescence-based assay performed by Reaction Biology Corporation (Malvern, PA, USA). The sirtuin enzymes used in the assays were all obtained from in-house sources at Reaction Biology Corporation (Malvern, PA, USA). […] Sirt2 is provided in a buffer containing 50 mM Tris/HCl (pH 7.5), 500 mM NaCl, 1 mM TCEP, and 10% glycerol (v/v). […] Sirt3 is supplied in 50 mM Tris/HCl (pH 7.5), 500 mM NaCl, and 10% glycerol (v/v). […] All proteins were provided in purified forms for use in the assays. […] After 2 h of incubation at 30 °C, the universal inhibitor nicotinamide was added in excess to completely stop the deacetylation reaction, followed by the addition of a protease-based developer to release 7-amino-4-methylcoumarin, resulting in characteristic fluorescence, which was measured after 1 h at 30 °C (excitation/emission = 360/460). A no-inhibitor control was implemented, serving as a reference for 100% enzyme activity. […] Three individual IC50 values per test compound were calculated from the corresponding three dilution series fluorescence data using sigmoidal curve fitting in Prism 8.0.2 (GraphPad Software, Boston, MA, USA), and these were averaged to determine the mean IC50 value along with the standard deviation. To assess the selectivity against Sirt1, Sirt3, and Sirt5, a 50 µM concentration of the test compound was tested in duplicate, and the inhibitory activity was expressed as the mean of the duplicates in percentage of enzyme activity, including standard deviation, relative to the no-inhibitor control (representative 100% enzyme activity).

Sirt3 = system: T3, Sirt3; test: Fluorescence-based Sirt3 subtype selectivity assay (Reaction Biology); format: biochemical; conditions: 50 µM inhibitor, duplicate, relative to no-inhibitor control
T3 construct: spans amino acids 101–399; GST (N); purchased Reaction Biology Corporation (Malvern, PA, USA), in-house enzyme of the contract laboratory; host or cells: E. coli
Method: as §1, §2

Sirt5 = system: T4, Sirt5; test: Fluorescence-based Sirt5 subtype selectivity assay (Reaction Biology); format: biochemical; conditions: 50 µM inhibitor, duplicate, relative to no-inhibitor control
T4 construct: consisting of amino acids 37–310 (C-terminal); His-tag (N); purchased Reaction Biology Corporation (Malvern, PA, USA), in-house enzyme of the contract laboratory; host or cells: E. coli
Method: as §1, §2

[1] = MTT-based cell viability assay; design: species or system human; conditions: human; HL-60 cells, 24 h incubation, MTT; read-out: IC50 acute cytotoxicity
Method: The SirReal-based Sirt2 inhibitors (FM345, FM352, FM358, FM368, RW-93, RW-95 and RW-99) were tested for potential acute cytotoxicity to human cells in an MTT-based cell viability assay. […] HL-60 cells were treated with the corresponding Sirt2 inhibitors at various concentrations and then incubated for 24 h. […] Representative cell viability results following treatment with RW-93 are shown in Figure S1 of the Supplementary Materials.
Cell viability assay. The cytotoxicity of the Sirt2 inhibitors was determined using a colorimetric MTT assay following Mosmann’s protocol. HL-60 cells (purchased from DSMZ (German Collection of Microorganisms and Cell Cultures, Deutsche Sammlung von Mikroorganismen und Zellkulturen GmbH, Braunschweig, Germany) were cultivated in RPMI medium with 10% fetal bovine serum at 37 °C with 5% CO2 atmosphere. The cells were then seeded in a 96-well plate with a concentration of 9 x 10^4 cells/well and a well volume of 99 µL. The cells were further incubated at 37 °C with 5% CO2 atmosphere for 24 h. The cells were then treated with 1 µL solution of Sirt2 inhibitors in various concentrations, which were prepared from 10 mM or 20 mM DMSO stock solutions. Negative controls were treated with 1 µL DMSO and positive controls with 1 µL of 1% Triton-X solution. Three technical replicates were performed. After incubation for 24 h, 10 µL MTT (5.0 mg/mL in PBS) were added to each well and the cells were incubated at 37 °C with 5% CO2 atmosphere for 2 h. Then 190 µL DMSO were added to each well and the plate shaken at room temperature at 600 rpm for 1 h with light exclusion. The absorbance of the MTT metabolite formazan was measured at 570 nm using the MRX Microplate Reader (Dynex Technologies, Chantilly, VA, USA). The means of the corresponding triplicates were calculated and set in relation to the 1% DMSO negative controls. The data was processed using Prism 8.0.2 (GraphPad Software, Boston, MA, USA) software and a logarithmic sigmoidal curve fitting for the calculation of the respective IC50 values was performed.

Structure (SMILES)	toxicity in HL-60 cell line (HL-60 cell line)	Residual Enzyme Activity [%] ± SD Sirt1 (Sirt1) [%]	IC50 (Sirt2) [µM]	Residual Enzyme Activity [%] ± SD Sirt3 (Sirt3) [%]	Residual Enzyme Activity [%] ± SD Sirt5 (Sirt5) [%]	IC50 at 24 h [1] [nM]
Cc1cc(C)nc(SCC(=O)Nc2ncc(Cc3cccc4ccccc34)s2)n1 [SirReal2]	not toxic					
Cc1cc(C)nc(SCC(=O)Nc2ncc(COc3ccc(NC(=O)c4cnn(C)c4)c(Cl)c3)s2)n1 [RW-99, N-(2-Chloro-4-((2-(2-((4,6-dimethylpyrimidin-2-yl)thio)acetamido)thiazol-5-yl)methoxy)phenyl)-1-methyl-1H-pyrazole-4-carboxamide]		53.9 ± 0.2	0.025 ± 0.0026	56.1 ± 0.1	55.1 ± 2.0	> 50000

Reference: article PMC12563821 (International Journal of Molecular Sciences, 2025)
